The text below walks through data of publication PMC8740768 (Proceedings of the National Academy of Sciences of the …, 2021).

B1: protease-associated domain of vacuolar sorting receptor isoform 1 (VSR1-PA) (domain or fragment, Arabidopsis thaliana, UniProt P93026 20-182, looked up)
chain: RFVVEKNNLKVTSPDSIKGIYECAIGNFGVPQYGGTLVGTVVYPKSNQKACKSYSDFDISFKSKPGRLPTFVLIDRGDCYFTLKAWIAQQAGAAAILVADSKAEPLITMDTPEEDKSDADYLQNITIPSALITKTLGDSIKSALSGGDMVNMKLDWTESVPHP
B2: C-terminal peptide of CRU1 (YRVAAA) (peptide)
peptide: YRVAAA

One data set concerns soybean seeds. As to conditions: cited from earlier work.
Data set [1] deals with VSR1-NT. The data set can be described thus: Competitive peptide pull-down: elution of aleurain-ssVSD-bound VSR1-NT. Details: species or system Arabidopsis thaliana. The note with it: 2 mM peptide in VSR binding buffer, 4C, 4 hours; T7 immunoblot. (Immunoblotting shows a protein as a band on a membrane.)
Data set [2] has as its system VSR1-NT. The data set can be described thus: Competitive peptide pull-down: elution of Cru1-ctVSD-bound VSR1-NT. Also on record: species or system Arabidopsis thaliana. The note with it: 2 mM peptide in VSR binding buffer, 4C, 4 hours, T7 immunoblot.
The subject of the next data set is VSR1-PA. As to conditions: cited from earlier work.
For the next data set, the system named is PSV. As to conditions: C terminus of phaseolin; cited from earlier work.
In the next data set the test system is phaseolin. As to conditions: cited from earlier work.
For another data set, the system named is VSR1. As to conditions: cited from earlier work.
For the next data set, the system named is VSR1-PA-R95M. The data set can be described thus: Thermal shift assay. In kind it is binding, Arabidopsis thaliana. The note with it: 5 mM peptide, 50 μM VSR1-PA-R95M, pH 7.1; n = 3; ns P > 0.05.
Data set [3] has as its target B2. The data set can be described thus: thermal shift assay.
The target in data set [4] is B1. The data set can be described thus: crystal structure.
The target in data set [5] is B1. The data set can be described thus: differential scanning fluorimetry, isothermal analysis. On the technique in general: In DSF a fluorescence change marks the thermal transition of the protein.
For data set [6], the target named is B1. The data set is described as above. This is another data set of the same source.

Entries after “also recorded” stand apart in the source; their conditions may differ. Where two headings read alike, the source gives them in different places.

Regarding 612PLSSILRAFY621, in the data set with soybean seeds, the “Targeting of GFP to the PSV” value is “sufficient to target GFP to the PSV in soybean seeds”.

As to “ADSNPIRPVT [aleurain-ssVSD, reference compound]”, in the data set on VSR1-NT [1], the “Elution of aleurain-ssVSD-bound VSR1-NT” value was “eluted”. In addition, in the data set with VSR1-NT [2], the “Elution of Cru1-ctVSD-bound VSR1-NT” value is “not by aleurain-ssVSD”. The “Interaction of VSR1-PA with ssVSD” value with VSR1-PA is recorded as “VSR1-PA binds to the residues (ADS) preceding the NPIR motif”.

As for AFVY, the “Targeting of seed proteins to the PSV” value in the data set with PSV is “essential for targeting seed proteins to the PSV”. The “Effect of removing the C-terminal residues on phaseolin” value in the data set with phaseolin is “abolished aggregation of phaseolin and missorted it to the extracellular space”.

SYGRPRVAAA [Cru1]: in the data set on VSR1-NT [1], the “Elution of aleurain-ssVSD-bound VSR1-NT” value is “eluted”. Also, the “Elution of Cru1-ctVSD-bound VSR1-NT” value in the data set on VSR1-NT [2] (listed as Cru1-ctVSD) was “only eluted by ctVSD of CRU1”. In addition, the “Binding to VSR1” value in the data set on VSR1 (earlier studies) was “VSR1 could bind to the C-terminal peptide of CRU1; also recorded: VSR1 can bind to the C-terminal sequence”. Further, the “Calcium dependence of binding to VSR1” value in the data set on VSR1 (pull-down assay) is listed as “calcium-dependent”.

For SYGRPRVAAAP [Cru1+P], the “Elution of aleurain-ssVSD-bound VSR1-NT” value with VSR1-NT [1] was “not eluted”. Besides, the “Elution of Cru1-ctVSD-bound VSR1-NT” value in the data set with VSR1-NT [2] was “not by aleurain-ssVSD and Cru1+P”.

Regarding YRVAAA, the “Change in Tm of VSR1-PA-R95M (in words)” value in the data set on VSR1-PA-R95M is reported as “no significant change in the Tm of VSR1-PA-R95M”.

As for B1, in [3], the “increase of Tm” value came to 5.3 °C.

Take RVAAA [C-terminal pentapeptide (468RVAAA472) of CRU1]: in [4], the binding result is listed as “binds”.

In general, Kd refers to the equilibrium constant for the complex coming apart. Low values mean a tighter complex, high ones a looser complex. For the molecule YSDRFV [YSDRFV peptide derived from the ctVSD of VL22], the Kd in data set [5] is 3200 µM; in data set [6], 1000 µM.

With B2, the Kd stood at 9600 µM in data set [5] and 2600 µM in data set [6].
